Measurements taken from patent EP2951180B1, “2,6,7,8 SUBSTITUTED PURINES AS HDM2 INHIBITORS” (Merck Sharp & Dohme Corp., priority 2013, dated 2014).

target: T1, HDM2 (Homo sapiens, UniProt Q00987); assay: HDM2 FRET assay (inhibition of binding of FITC labeled p53-pocket peptide to HDM2); conditions: 0.5 nM HDM2 (residues 17 to 125), 3nM peptide, two hour incubation at room temperature; read-out: FRET IC50
T1 construct: Thioredoxin (N); made in house; host or cells: E. coli strain BL21(DE3)Rosetta
T1 sequence (Q00987 17-125): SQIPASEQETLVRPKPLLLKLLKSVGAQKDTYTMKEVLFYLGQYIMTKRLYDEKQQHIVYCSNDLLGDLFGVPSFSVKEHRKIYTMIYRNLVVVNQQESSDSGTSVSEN
Procedure, shortened: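 TR-FRET with 0.5 nM His-tagged recombinant HDM2, 3 nM FITC-labelled p53 peptide and 0.25 nM Tb-anti-His antibody in PBS, 0.01% BSA, 0.01% Tween-20, 0.1% DMSO. IC50 from em520/em495 ratio over 10-point dilutions, 4-parameter logistic fit.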

**Q.** For `C[C@@H](Nc1nc(-c2nc(=O)n(C)[nH]2)nc2nc(N3CCOC[C@H]3c3ccccc3)n(C[C@H]3CC[C@H](C)CC3)c12)C1CCC1` [Example 12.19, 5-(6-{[(1R)-1-cyclobutylethyl]amino}-7-[(trans-4-methylcyclohexyl)methyl]-8-[(3R)-3-phenylmorpholin-4-yl]-7H-purine-2-yl)-2-methyl-2,4-dihydro-3H-1,2,4-triazol-3-one], which IC50 is on record?
**A.** 1.61 nM

**Q.** With `C[C@@H]1CNCCN1c1nc2nc(-c3noc(=O)[nH]3)nc(-c3cccc(Cl)c3)c2n1C[C@H]1CC[C@H](C)CC1` [Example 16.54, 3-{6-(3-chlorophenyl)-7-[(trans-4-methylcyclohexyl)methyl]-8-[(2R)-2-methylpiperazin-1-yl]-7H-purin-2-yl}-1,2,4-oxadiazol-5(4H)-one] as the compound, how does the IC50 read?
**A.** 59 nM

**Q.** Which IC50 does the source give for `C[C@H]1CC[C@H](Cn2c(N3CCOC[C@H]3c3ccccc3)nc3nc(-c4noc(=O)[nH]4)nc(-c4cc(Cl)cnc4F)c32)CC1` [Example 16.108, 3-{6-(5-chloro-2-fluoropyridin-3-yl)-7-[(trans-4-methylcyclohexyl)methyl]-8-[(3R)-3-phenylmorpholin-4-yl]-7H-purin-2-yl}-1,2,4-oxadiazol-5(4H)-one] here?
**A.** 1.16 nM

**Q.** `C[C@H]1CC[C@H](Cn2c(C3CC3)nc3nc(-c4noc(=O)[nH]4)nc(-c4cccc(Cl)c4)c32)CC1` [Example 24.2, 3-{6-(3-chlorophenyl)-8-cyclopropyl-7-[(trans-4-methylcyclohexyl)methyl]-7H-purin-2-yl}-1,2,4-oxadiazol-5(4H)-one] was tested. Which IC50 did it give?
**A.** 41.7 nM

**Q.** Which IC50 does the source give for `C[C@H]1CC[C@H](Cn2c(N3CCOCC3)nc3nc(-c4n[nH]c(=O)o4)nc(-c4cccc(Cl)c4)c32)CC1` [Example 16.33, 5-{6-(3-chlorophenyl)-7-[(trans-4-methylcyclohexyl)methyl]-8-morpholin-4-yl-7H-purin-2-yl}-1,3,4-oxadiazol-2(3H)-one] here?
**A.** 163 nM

**Q.** `CN(Cc1ccccc1)c1nc2nc(-c3n[nH]c(=O)o3)nc(-c3cccc(Cl)c3)c2n1C[C@H]1CC[C@H](C)CC1` [Example 16.62, 5-{8-[benzyl(methyl)amino]-6-(3-chlorophenyl)-7-[(trans-4-methylcyclohexyl)methyl]-7H-purin-2-yl}-1,3,4-oxadiazol-2(3H)-one] was tested. Which IC50 did it give?
**A.** 136 nM

**Q.** With `CC(C)c1ccnc(-c2nc3nc(C(=O)O)nc(OC(C)C4CCC4)c3n2C[C@H]2CC[C@H](C)CC2)c1` (mixture of isomers) [Example 17.8, 6-(1-cyclobutylethoxy)-7-[(trans-4-methylcyclohexyl)methyl]-8-[4-(propan-2-yl)pyridin-2-yl]-7H-purine-2-carboxylic acid] as the compound, how does the IC50 read?
**A.** 10.3 nM

**Q.** For `C[C@@H]1OCCN(c2nc3nc(-c4n[nH]c(=O)o4)nc(-c4cncc(Cl)c4)c3n2C[C@H]2CC[C@H](C)CC2)[C@@H]1C` [Example 16.103, 5-{6-(5-chloropyridin-3-yl)-8-[(2S,3R)-2,3-dimethylmorpholin-4-yl]-7-[(trans-4-methylcyclohexyl)methyl]-7H-purin-2-yl}-1,3,4-oxadiazol-2(3H)-one], which IC50 is on record?
**A.** 140 nM

same assay, conditions: Table 9; read-out: FRET IC50

**Q.** With `C[C@H](CO)Nc1nc2nc(C(=O)O)nc(N[C@H](C)C3CCC3)c2n1Cc1ccc(C(F)(F)F)cc1` [Example 9.7, 6-{[(1R)-1-cyclobutylethyl]amino}-8-{[(1R)-2-hydroxy-1-methylethyl]amino}-7-[4-(trifluoromethyl)benzyl]-7H-purine-2-carboxylic acid] as the compound, how does the IC50 read?
**A.** 35.8 nM

**Q.** With `C[C@@H](Nc1nc(C(=O)O)nc2nc(N3CCOC[C@@H]3C)n(Cc3ccc(C(F)(F)F)cc3)c12)C1CCC1` [Example 9.32, 6-{[(1R)-1-cyclobutylethyl]amino}-8-[(3S)-3-methylmorpholin-4-yl]-7-[4-(trifluoromethyl)benzyl]-7H-purine-2-carboxylic acid] as the compound, how does the IC50 read?
**A.** 15.2 nM

**Q.** `CC(c1ccccn1)N(C)c1nc2nc(-c3noc(=O)[nH]3)nc(N[C@H](C)C3CCC3)c2n1Cc1ccc(C(F)(F)F)c(F)c1` (stereo partly drawn) [Example 9.72, 3-(6-{[(1R)-1-cyclobutylethyl]amino}-7-[3-fluoro-4-(trifluoromethyl)benzyl]-8-[methyl(1-pyridin-2-ylethyl)amino]-7H-purin-2-yl)-1,2,4-oxadiazol-5(4H)-one] was tested. Which IC50 did it give?
**A.** 4.64 nM

**Q.** With `CCN(CCN1CCCC1)c1nc2nc(-c3noc(=O)[nH]3)nc(N[C@H](C)C3CCC3)c2n1Cc1ccc(C(F)(F)F)cc1` [Example 9.97, 3-(6-{[(1R)-1-cyclobutylethyl]amino}-8-[ethyl(2-pyrrolidin-1-ylethyl)amino]-7-[4-(trifluoromethyl)benzyl]-7H-purin-2-yl)-1,2,4-oxadiazol-5(4H)-one] as the compound, how does the IC50 read?
**A.** 23.9 nM

same assay, conditions: Table 10; read-out: FRET IC50

**Q.** With `CC(Oc1ccccc1)c1nc2nc(C(=O)O)nc(N[C@H](C)C3CCC3)c2n1Cc1ccc(C(F)(F)F)cc1` (stereo partly drawn) [Example 10.8, 6-(((R)-1-Cyclobutylethyl)amino)-8-(1-phenoxyethyl)-7-(4-(trifluoromethyl)benzyl)-7H-purine-2-carboxylic acid] as the compound, how does the IC50 read?
**A.** 28.9 nM

**Q.** How did the IC50 turn out when `CC(C)CC(=O)N(C)c1nc2nc(C(=O)O)nc(N[C@H](C)C3CCC3)c2n1Cc1ccc(C(F)(F)F)cc1` [Example 10.3, (R)-6-((1-cyclobutylethyl)amino)-8-(N,3-dimethylbutanamido)-7-(4-(trifluoromethyl)benzyl)-7H-purine-2-carboxylic acid] was run?
**A.** 69.8 nM

same assay, conditions: Table 11; read-out: FRET IC50

**Q.** With `C[C@@H](Nc1nc(-c2noc(=O)[nH]2)nc2nc(N3CCC[C@H]3C(F)(F)F)n(C[C@H]3CC[C@H](C)CC3)c12)C1CCC1` [Example 11.128, 3-(6-{[(1R)-1-cyclobutylethyl]amino}-7-[(trans-4-methylcyclohexyl)methyl]-8-[(2S)-2-(trifluoromethyl)pyrrolidin-1-yl]-7H-purin-2-yl)-1,2,4-oxadiazol-5(4H)-one] as the compound, how does the IC50 read?
**A.** 0.642 nM

**Q.** How did the IC50 turn out when `C[C@@H](Nc1nc(-c2noc(=O)[nH]2)nc2nc(N3CCCCC3C3CCCCC3)n(C[C@H]3CC[C@H](C)CC3)c12)C1CCC1` (stereo partly drawn) [Example 11.5, 3-(6-(((R)-1-cyclobutylethyl)amino)-8-(2-cyclohexylpiperidin-1-yl)-7-((trans-4-methylcyclohexyl)methyl)-7H-purine-2-yl)-1,2,4-oxadiazol-5(4H)-one] was run?
**A.** 450 nM

**Q.** With `C[C@@H](Nc1nc(C(=O)O)nc2nc(N3CCCCC3c3ccccn3)n(C[C@H]3CC[C@H](C)CC3)c12)C1CCC1` (stereo partly drawn) [Example 11.21, 6-{[(1R)-1-cyclobutylethyl]amino}-7-[(trans-4-methylcyclohexyl)methyl]-8-(2-pyridin-2-ylpiperidin-1-yl)-7H-purine-2-carboxylic acid] as the compound, how does the IC50 read?
**A.** 2.72 nM

**Q.** Which IC50 does the source give for `COC1(C)CN(c2nc3nc(-c4noc(=O)[nH]4)nc(N[C@H](C)C4CCC4)c3n2C[C@H]2CC[C@H](C)CC2)C1` [Example 11.102, 3-(6-{[(1R)-1-cyclobutylethyl]amino}-8-(3-methoxy-3-methylazetidin-1-yl)-7-[(trans-4-methylcyclohexyl)methyl]-7H-purin-2-yl)-1,2,4-oxadiazol-5(2H)-one] here?
**A.** 20.8 nM

**Q.** How did the IC50 turn out when `C[C@@H](Nc1nc(C(=O)O)nc2nc(N3CCCC[C@H]3c3ccccc3)n(C[C@H]3CC[C@H](C)CC3)c12)C1CCC1` [Example 11.14, 6-{[(1R)-1-cyclobutylethyl]amino}-7-[(trans-4-methylcyclohexyl)methyl]-8-[(2S)-2-phenylpiperidin-1-yl]-7H-purine-2-carboxylic acid] was run?
**A.** 0.381 nM

**Q.** For `C[C@@H](Nc1nc(-c2noc(=O)[nH]2)nc2nc(N3CCOCC3c3ccc(Cl)cc3)n(C[C@H]3CC[C@H](C)CC3)c12)C1CCC1` (stereo partly drawn) [Example 11.119, 3-{8-[3-(4-chlorophenyl)morpholin-4-yl]-6-{[(1R)-1-cyclobutylethyl]amino}-7-[(trans-4-methylcyclohexyl)methyl]-7H-purin-2-yl}-1,2,4-oxadiazol-5(4H)-one], which IC50 is on record?
**A.** 24.8 nM

same assay, conditions: Table 17.2; read-out: FRET IC50

**Q.** For `CC(=O)N1CCN(c2nc3nc(-c4noc(=O)[nH]4)nc(N[C@H](C)C4CCC4)c3n2C[C@H]2CC[C@H](C)CC2)[C@H](C)C1` [Example 17.9, 3-(8-((R)-4-acetyl-2-methylpiperazin-1-yl)-6-(((R)-1-cyclobutylethyl)amino)-7-((trans-4-methylcyclohexyl)methyl)-7H-purin-2-yl)-1,2,4-oxadiazol-5(4H)-one], which IC50 is on record?
**A.** 2.61 nM

same assay, conditions: Table 18; read-out: FRET IC50

**Q.** `CC(C)c1ccnc(-c2nc3nc(C(=O)O)nc(N[C@H](C)C4CCC4)c3n2CC2CCC(F)(F)CC2)c1` [Example 18.3, (R)-6-((1-cyclobutylethyl)amino)-7-((4,4-difluorocyclohexyl)methyl)-8-(4-isopropylpyridin-2-yl)-7H-purine-2-carboxylic acid] was tested. Which IC50 did it give?
**A.** 57.4 nM

same assay, conditions: Table 21; read-out: FRET IC50

**Q.** `C[C@@H](Nc1nc(C(=O)O)nc2nc(C3COCC3c3ccccc3)n(Cc3ccc(C(F)(F)F)cc3)c12)C1CCC1` (single isomer, unassigned) [Example 21.8] was tested. Which IC50 did it give?
**A.** 3.8 nM

**Q.** For `C[C@@H](Nc1nc(-c2noc(=O)[nH]2)nc2nc(CCc3ccccc3)n(C[C@H]3CC[C@H](C)CC3)c12)C1CCC1` [Example 21.24, 3-[6-{[(1R)-1-cyclobutylethyl]amino}-7-[(trans-4-methylcyclohexyl)methyl]-8-(2-phenylethyl)-7H-purin-2-yl]-1,2,4-oxadiazol-5(4H)-one], which IC50 is on record?
**A.** 8.02 nM

same assay, conditions: Table 22; read-out: FRET IC50

**Q.** `C[C@@H](Nc1nc(-c2noc(=O)[nH]2)nc2nc(C(O)(c3ccccc3)C(F)(F)F)n(C[C@H]3CC[C@H](C)CC3)c12)C1CCC1` (single isomer, unassigned) [Example 22.25] was tested. Which IC50 did it give?
**A.** 501 nM

**Q.** For `C[C@@H](Nc1nc(-c2noc(=O)[nH]2)nc2nc(C(O)(c3ccccc3)C(F)(F)F)n(C[C@H]3CC[C@H](C)CC3)c12)C1CCC1` (single isomer, unassigned) [Example 22.28], which IC50 is on record?
**A.** 27.3 nM

same assay, conditions: Table 23; read-out: FRET IC50

**Q.** How did the IC50 turn out when `C[C@H]1CC[C@H](Cn2c(C3(F)COC3)nc3nc(-c4noc(=O)[nH]4)nc(-c4cncc(Cl)c4)c32)CC1` [Example 23.28, 3-{6-(5-chloropyridin-3-yl)-8-(3-fluorooxetan-3-yl)-7-[(trans-4-methylcyclohexyl)methyl]-7H-purin-2-yl}-1,2,4-oxadiazol-5(4H)-one] was run?
**A.** 62.8 nM
